Residues, ends and D or L forms follow the SMILES beside them.
What was measured:
Assay type in all cases: biochemical, Streptomyces sp. NRRL S-515
PnaC = PnaC dipeptide ligation reactions (LC-HRMS); conditions: for nucleophiles accepted upon activation of the carboxylate: role: substrate (activated carboxylate); for acceptance as carboxylate: role: substrate (carboxylate), 30° C, 16 hours
Description: (§1) These hypotheses were tested by overproducing and purifying recombinant PnaB and PnaC from E. coli for use in a series of biochemical assays. PnAla, Ala, and ATP were incubated with PnaB or PnaC and the reactions were monitored by ^31P NMR and LC-HRMS. […] To determine if either enzyme could convert Ala-Val into phosphonoalamide A, protein was removed from the PnaC reaction by ultrafiltration and Ala, ATP, and fresh PnaC or PnaB was added to the filtrate. LC-HRMS identified PnAla-Ala-Val as a product following the addition of PnaB, but not PnaC (FIG. 25A-FIG. 25C).
The ATP-Grasp ligases PnaC and PnaB underlie diversification of L-PnAla-containing oligopeptides. To understand the biochemical nature of this potential phosphonopeptide diversity, the substrate specificity of the dipeptide ligase PnaC was first delineated. Microscale biochemical reactions containing purified PnaC were performed with every combination of the 20 canonical amino acids and L-allo-threonine (231 total pairs of substrates). Reactions were analyzed by LC-HRMS to reveal putative dipeptides from 146 out of the 231 combinations. To distinguish residues in reactions containing isomeric pairs (e.g., Ile and Leu, Thr and allo-Thr) new reactions were prepared using ^15N-Ile and 4-^13C-2,3-D2-Thr as substrates. LC-HRMS/MS fragmentation analysis was then performed to verify all products and determine structures.
Biochemical assays of His6-PnaC. Typical reaction mixtures ([…]) contained 10 μM His6-PnaC, […], 3 mM of each L-amino acid, and 5 mM ATP in 50 mM Tris-HCl, 100 mM NaCl, 2 mM MgCl2 pH 9. Reactions were incubated at 30° C. for 16 hours, heat inactivated at 65° C. for 10 minutes, and then analyzed by LC-MS as described above.
(§2) Analysis of PnaC and PnaB substrate specificity reactions. An extracted ion chromatogram (EIC) was obtained for each potential product m z. The shape and retention time of each EIC were used to evaluate the quality and plausibility of true signals, and samples with low-confidence EICs were re-analyzed individually, to address the challenges of ion suppression (FIG. 31A-FIG. 31C) and background noise (FIG. 32A-FIG. 32D).

PnaD and PnaA = assay: Coupled PnaD-PnaA kinetics: PEP conversion to L-PnAla, coupled to MDH/NADH oxidation; conditions: second substrate L-Asp 5 mM
Excerpt: Apparent steady state parameters were also derived for the conversion of PEP to L-PnAla in reactions with equimolar amounts of PnaD and PnaA (FIG. 20A-FIG. 20B). […] The lower activity in the two-enzyme system is consistent with the slower rate of L-PnAla accumulation observed in the time course experiments (FIG. 16), reflects the unfavourability of PnPy formation [B30], and supports the general hypothesis that PepM activity is the limiting step in Pn biosynthetic pathways.
Kinetic analyses. All reactions (400 μL) were performed in 50 mM HEPES, 150 mM NaCl, pH 7.5, 30° C. using an Agilent Cary 300 spectrophotometer. The instrument was first blanked using the reaction containing the enzymes and the fixed substrate (without NADH). Initial rates were calculated from continual changes in absorbance (340 nm) before and after substrate addition. Data were analyzed using SigmaPlot 15.
Conversion of PEP and L-Asp to L-PnAla and OAA by His6-SUMO-PnaA and His6-PnaD. Each reaction contained 1 μM PnaA, 5 μM PnaD, 5 μM MDH, 200 uM NADH, 2 mM MgCl2, 5 mM L-Asp, and were initiated by the addition of 0.1, 0.2, 0.35, 0.5, 0.65, 0.8, or 1 mM PEP. PnaA was pre-incubated with PLP (1:5) on ice for 10 min prior to use.

PnaB = PnaB ligation reactions (31P NMR, LC-HRMS); conditions: for conversion of dipeptide with PnAla into phosphonoalamide: role: substrate, dipeptide 3 mM, with PnAla 1 mM and ATP 3 mM, pH 9, 30° C
Description: as §1
Biochemical assays of His6-PnaB. Typical reaction mixtures ([…]) contained 10 μM His6-PnaB, 3 mM ATP, 1 mM L-PnAla, 3 mM chemically synthesized L-Ala-L-Val, L-Val-L-Val, L-Ala-L-Ile, or L-Thr-L-Val in 50 mM Tris-HCl, 100 mM NaCl, 2 mM MgCl2 pH 9. Reactions were incubated at 30° C. for 2 hours, heat inactivated at 65° C. for 10 minutes, and then analyzed by NMR and LC-MS as described above.

PnaB and PnaC = assay: One-pot tripeptide synthesis using PnaB and PnaC; conditions: for abundance of PnAla conjugate: role: substrate (dipeptide), with PnAla 1 mM and ATP 5 mM, one-pot with PnaC
Excerpt: Having established the diversity of dipeptides produced by PnaC, the reaction specificity of PnaB was probed. PnaC was used to generate substrates for the ligation of PnAla by PnaB. Microscale reactions contained PnaB, PnaC, PnAla, and all pairs of amino acids shown to form dipeptides. LC-HRMS and fragmentation analysis was then used to identify and verify PnAla-containing tripeptides from these 80 reactions (FIG. 4B, Table 4, Table 5). Altogether, the combined enzyme system produced 97 distinct PnAla-tripeptides, 93 of which had not been previously isolated (FIG. 29 & FIG. 30).
Tripeptide synthesis assays using PnaB and PnaC. Reaction mixtures ([…]) contained 10 μM His6-PnaB, 10 μM His6-PnaC, 1 mM L-PnAla, 3 mM L-amino acid A, 3 mM L-amino acid B, and 5 mM ATP in 50 mM Tris-HCl, 100 mM NaCl, 2 mM MgCl2 pH 9. Reactions were incubated at 30° C. for 16 hours, heat inactivated at 65° C. for 10 minutes, and then analyzed by NMR and LC-MS as described above.
as §2

PnaA with PnaD = assay: PnaD-PnaA coupled forward reaction, 31P NMR (PEP to PnAla)
Description: Biochemical assays of His6-SUMO-PnaA with His6-PnaD. Typical reaction mixtures (300 μL) contained 20 μM His6-PnaD, 20 μM His6-SUMO-PnaA, 1.5 mM PEP, 3 mM L-Asp, 100 μM pyridoxal 5′-phosphate (PLP), and 2 mM MgCl2 in 50 mM HEPES, 150 mM NaCl, pH 7.5. Reactions were incubated at 30° C. for 2 hours, heat inactivated at 65° C. for 10 minutes, and then analyzed by ^31P NMR and LC-MS as described above.
Reactions in timecourse experiments ([…]) contained 10 μM His6-PnaD, 10 μM His6-SUMO-PnaA, 1.5 mM PEP, 10 mM L-Asp, 100 μM pyridoxal 5′-phosphate (PLP), and 2 mM MgCl2 in 50 mM HEPES, 150 mM NaCl, pH 7.5. Samples were where heat inactivated 1, 5, 10, 30, 60, 120, and 240 min after initiation and then analyzed by ^31P NMR as described above.
Reactions examining the effect of amino donor concentrations were the same as above, except they contained 1.5, 3, 5, or 10 mM of (L-Asp). Samples were heat inactivated after 120 min and then analyzed by ^31P NMR as described above.

PnaA = PnaA reverse transamination reaction, 31P NMR/LC-MS (PnAla to PnPy); conditions: role: cofactor; additional PLP provided, with PnAla and OAA
Description: Biochemical assays of His6-SUMO-PnaA. Typical reaction mixtures (300 μL) contained 20 μM His6-SUMO-PnaA, 1.5 mM L-PnAla, 3 mM oxaloacetate, and 100 μM pyridoxal 5′-phosphate (PLP) in 50 mM HEPES, 150 mM NaCl, pH 7.5. Reactions were incubated at 30° C. for 2 hours, heat inactivated at 65° C. for 10 minutes, and then analyzed by NMR and LC-MS as described above.
Reactions in time course experiments (150 μL) contained 10 μM His6-SUMO-PnaA, 1.5 mM L-PnAla, 10 mM oxaloacetate (OAA), and 100 μM pyridoxal 5′-phosphate (PLP) in 50 mM HEPES, 150 mM NaCl, pH7.5. Samples were where heat inactivated 1, 5, 10, 30, 60, 120, and 240 min after initiation and then analyzed by ^31P NMR as described above.
Reactions examining the effect of keto-acid acceptor concentrations were the same as above, except they contained 1.5, 3, 5, or 10 mM of (OAA). Samples were heat inactivated after 120 min and then analyzed by ^31P NMR as described above.

[1] = role: substrate (PEP, 0.1-1 mM), MgCl2 2 mM, PnaD and PnaA coupled, pH 7.5, 30° C

For `C[C@@H](O)[C@H](N)C(=O)O` [Thr, Threonine], the “nucleophiles accepted upon activation of the carboxylate” value (PnaC; with ATP) was “acceptance of Trp as a nucleophile, but not Thr or Pro”.

In the case of `C=C(OP(=O)(O)O)C(=O)O` [PEP, phosphoenolpyruvate], the “catalytic efficiency lower than that of PnaA directly provided with PnPy (fold)” value (PnaD and PnaA; role: substrate (PEP), compared with PnPy) is reported as 1,000 fold, the Km (PnaD and PnaA; [1]) is reported as 547 µM and the kcat (PnaD and PnaA; [1]) is reported as 0.084 s⁻¹.

With `CC(C)[C@H](NC(=O)[C@@H](N)[C@@H](C)O)C(=O)O` [Thr-Val] (H-Thr-Val-OH) the “conversion of dipeptide with PnAla into phosphonoalamide” value (shortened to “conversion of dipeptide”) (PnaB) was “respective conversion into phosphonoalamides B, C, and D”.

`N=C(N)NCCC[C@H](N)C(=O)O` [arginine, Arginine] was tested, and the acceptance as carboxylate (PnaC; with ATP) was “all but arginine and cysteine were accepted as carboxylates”.

In the case of `C[C@H](O)[C@H](N)C(=O)O` [allo-Thr, allothreonine], the “nucleophiles accepted upon activation of the carboxylate” value (PnaC; with ATP) is reported as “both Thr and Pro as nucleophiles, to the exclusion of Trp”.

`CC(C)[C@H](NC(=O)[C@H](C)N)C(=O)O` [Ala-Val] (H-Ala-Val-OH) was tested, and the “dipeptide product of PnaC reaction (Ala + Val, ATP)” value (PnaC; role: product, with Ala, Val, ATP) was “product of the PnaC reaction” and the “abundance of PnAla conjugate” value (PnaB and PnaC) was “greatest abundance”.

`C[C@H](N)C(=O)N[C@@H](C)C(=O)O` [Ala-Ala] (H-Ala-Ala-OH) was tested, and the “abundance of PnAla conjugate” value (PnaB and PnaC) was “greatest abundance”.

For `CSCC[C@H](NC(=O)[C@H](C)N)C(=O)O` [Ala-Met] (H-Ala-Met-OH), the “abundance of PnAla conjugate” value (PnaB and PnaC) was “greatest abundance”.

In the case of `N[C@@H](CS)C(=O)O` [cysteine, Cysteine], the acceptance as carboxylate (PnaC; with ATP) is reported as “all but arginine and cysteine were accepted as carboxylates”.

With `CC(C)C[C@H](NC(=O)[C@H](C)N)C(=O)O` [Ala-Leu] (H-Ala-Leu-OH) the “abundance of PnAla conjugate” value (PnaB and PnaC) was “greatest abundance”.

`Cc1ncc(COP(=O)(O)O)c(C=O)c1O` [PLP, pyridoxal 5′-phosphate, reference compound] was tested, and the “effect of PLP on PnAla formation” value (PnaA with PnaD; role: cofactor, without addition of PLP) was “enzyme activity was observed at significantly reduced amounts” and the “effect of PLP on PnPy formation” value (PnaA) was “significantly greater PnPy was observed when additional PLP was provided”.

`C[C@H](N)C(=O)O` [Ala, Alanine] was tested, and the “substrate preference (average ion intensity of dipeptides)” value (PnaC; role: substrate, with ATP, LC-HRMS ion intensity) was “average ion intensity nearly a magnitude larger than any other group”.

For `CSCC[C@H](N)C(=O)N[C@@H](Cc1c[nH]c2ccccc12)C(=O)O` [Met-Trp] (H-Met-Trp-OH), the “product of Met + Trp reaction” value (PnaC; role: product, PnaC-only reaction, Met and Trp, ATP) was “detected as the sole product”.

In the case of `Nc1ncnc2c1ncn2[C@@H]1O[C@H](COP(=O)(O)OP(=O)(O)OP(=O)(O)O)[C@@H](O)[C@H]1O` [ATP, reference compound], the ATP requirement (PnaB; role: cofactor, ATP omitted) is reported as “its omission abolished all activity” and the ATP requirement (PnaC; role: cofactor, ATP omitted) is reported as “its omission abolished all activity”.

For `CC[C@H](C)[C@H](NC(=O)[C@H](C)N)C(=O)O` [Ala-Ile] (H-Ala-Ile-OH), the “conversion of dipeptide” value (PnaB) was “respective conversion into phosphonoalamides B, C, and D” and the “abundance of PnAla conjugate” value (PnaB and PnaC) was “greatest abundance”.

`CSCC[C@H](NC(=O)[C@H](Cc1c[nH]c2ccccc12)NC(=O)[C@@H](N)CP(=O)(O)O)C(=O)O` [PnAla-Trp-Met] was tested, and the “product of Met + Trp reaction” value (PnaB and PnaC; role: product, two-enzyme system PnaBC, Met and Trp 3 mM each, ATP 5 mM) was “major species”.

In the case of `CC(C)[C@H](N)C(=O)N[C@H](C(=O)O)C(C)C` [Val-Val] (H-Val-Val-OH), the “conversion of dipeptide” value (PnaB) is reported as “respective conversion into phosphonoalamides B, C, and D”.

With `N[C@@H](CC(=O)O)C(=O)O` [L-Asp, reference compound] the “amino donor dependence of PnAla formation” value (PnaA with PnaD; role: substrate (amino donor), with PEP, PLP) was “strictly dependent on L-Asp as the amino donor”.
